According to ChEMBL document CHEMBL3044693, “Synthesis and antihyperlipidemic activity of novel condensed 2-fluoromethylpyrimidines” (2013):

Assays:
Assay type in all cases: functional
Rattus norvegicus [1] = test: Antihyperlipidemic activity in high fat diet fed Sprague-Dawley Rattus norvegicus (rat) assessed as coronary risk index at 50 mg/kg, po daily for 7 days measured on day 8 (reference value: 5.21 +/-1.76 no unit)
Rattus norvegicus [2] = test: Antihyperlipidemic activity in high fat diet fed Sprague-Dawley Rattus norvegicus (rat) assessed as decrease in serum VLDL level at 50 mg/kg, po daily for 7 days measured on day 8 relative to untreated control; set-up: scale not given: the % may be the effect or the level left
Rattus norvegicus [3] = test: Antihyperlipidemic activity in high fat diet fed Sprague-Dawley Rattus norvegicus (rat) assessed as increase in serum HDL level at 50 mg/kg, po daily for 7 days measured on day 8 relative to untreated control
Rattus norvegicus [4] = test: Antihyperlipidemic activity in high fat diet fed Sprague-Dawley Rattus norvegicus (rat) assessed as decrease in serum LDL level at 50 mg/kg, po daily for 7 days measured on day 8 relative to untreated control; set-up: scale not given: the % may be the effect or the level left
Rattus norvegicus [5] = test: Antihyperlipidemic activity in high fat diet fed Sprague-Dawley Rattus norvegicus (rat) assessed as decrease in serum triglyceride level at 50 mg/kg, po daily for 7 days measured on day 8 relative to untreated control; set-up: scale not given: the % may be the effect or the level left
Rattus norvegicus [6] = test: Antihyperlipidemic activity in high fat diet fed Sprague-Dawley Rattus norvegicus (rat) assessed as decrease in serum total cholesterol level at 50 mg/kg, po daily for 7 days measured on day 8 relative to untreated control; set-up: scale not given: the % may be the effect or the level left
Rattus norvegicus [7] = test: Antihyperlipidemic activity in high fat diet fed Sprague-Dawley Rattus norvegicus (rat) assessed as atherogenic index at 50 mg/kg, po daily for 7 days measured on day 8 (reference value: 4.15 +/-0.23 no unit)
Rattus norvegicus [8] = test: Antihyperlipidemic activity in high fat diet fed Sprague-Dawley Rattus norvegicus (rat) assessed as decrease in serum triglyceride level at 1 mg/kg, po daily for 7 days measured on day 8 relative to untreated control; set-up: scale not given: the % may be the effect or the level left
Rattus norvegicus [9] = test: Antihyperlipidemic activity in high fat diet fed Sprague-Dawley Rattus norvegicus (rat) assessed as coronary risk index at 1 mg/kg, po daily for 7 days measured on day 8 (reference value: 5.21 +/-1.76 no unit)
Rattus norvegicus [10] = test: Antihyperlipidemic activity in high fat diet fed Sprague-Dawley Rattus norvegicus (rat) assessed as decrease in serum LDL level at 1 mg/kg, po daily for 7 days measured on day 8 relative to untreated control; set-up: scale not given: the % may be the effect or the level left
Rattus norvegicus [11] = test: Antihyperlipidemic activity in high fat diet fed Sprague-Dawley Rattus norvegicus (rat) assessed as increase in serum HDL level at 1 mg/kg, po daily for 7 days measured on day 8 relative to untreated control
Rattus norvegicus [12] = test: Antihyperlipidemic activity in high fat diet fed Sprague-Dawley Rattus norvegicus (rat) assessed as decrease in serum VLDL level at 1 mg/kg, po daily for 7 days measured on day 8 relative to untreated control; set-up: scale not given: the % may be the effect or the level left
Rattus norvegicus [13] = test: Antihyperlipidemic activity in high fat diet fed Sprague-Dawley Rattus norvegicus (rat) assessed as decrease in serum total cholesterol level at 1 mg/kg, po daily for 7 days measured on day 8 relative to untreated control; set-up: scale not given: the % may be the effect or the level left
Rattus norvegicus [14] = test: Antihyperlipidemic activity in high fat diet fed Sprague-Dawley Rattus norvegicus (rat) assessed as atherogenic index at 1 mg/kg, po daily for 7 days measured on day 8 (reference value: 4.15 +/-0.23 no unit)

| SMILES | Activity (Rattus norvegicus [1]) | Activity (Rattus norvegicus [2]) | Activity (Rattus norvegicus [3]) | Activity (Rattus norvegicus [4]) | Activity (Rattus norvegicus [5]) | Activity (Rattus norvegicus [6]) | AI (Rattus norvegicus [7]) | Activity (Rattus norvegicus [8]) | Activity (Rattus norvegicus [9]) | Activity (Rattus norvegicus [10]) | Activity (Rattus norvegicus [11]) | Activity (Rattus norvegicus [12]) | Activity (Rattus norvegicus [13]) | AI (Rattus norvegicus [14]) |
| --- | --- | --- | --- | --- | --- | --- | --- | --- | --- | --- | --- | --- | --- | --- |
| O=c1[nH]c(CF)nc2sc3c(c12)CCCC3 | 2.39 | 50.71% | 58.27% | 65.82% | 50.71% | 40.44% | 0.96 | – | – | – | – | – | – | – |
| CCOC(=O)C1=C(C)C2C(=O)N=C(CF)N=C2S1 (stereo not drawn) | 1.69 | 57.76% | 73.48% | 86.92% | 57.77% | 56.19% | 0.31 | – | – | – | – | – | – | – |
| Cc1sc2nc(CF)[nH]c(=O)c2c1C | 3.14 | 37.83% | 44.68% | 45.91% | 37.8% | 32.48% | 1.46 | – | – | – | – | – | – | – |
| O=c1[nH]c(CF)nc2scc(-c3ccccc3)c12 | 2.63 | 49.37% | 46.43% | 56.47% | 49.36% | 37.45% | 1.13 | – | – | – | – | – | – | – |
| Cc1sc2nc(CF)[nH]c(=O)c2c1-c1ccccc1 | 3.18 | 39.77% | 41.31% | 48.7% | 39.74% | 33.18% | 1.51 | – | – | – | – | – | – | – |
| O=c1[nH]c(CF)nc2scc(-c3ccc(Cl)cc3)c12 | 2.05 | 51.91% | 79.63% | 72.47% | 51.91% | 44.99% | 0.63 | – | – | – | – | – | – | – |
| O=c1[nH]c(CF)nc2ccccc12 | 2.75 | 46.8% | 52.4% | 57.31% | 46.19% | 38.24% | 1.2 | – | – | – | – | – | – | – |
| COc1cc2nc(CF)[nH]c(=O)c2cc1OC | 3.16 | 45.85% | 62.44% | 40.26% | 45.14% | 26.27% | 1.53 | – | – | – | – | – | – | – |
| O=C1[C@H](CC[C@H](O)c2ccc(F)cc2)[C@@H](c2ccc(O)cc2)N1c1ccc(F)cc1 [EZETIMIBE] | – | – | – | – | – | – | – | 52.23% | 2.01 | 75.41% | 74.96% | 52.22% | 47.57% | 0.58 |
